Source: ChEMBL document CHEMBL3817824, “Synthesis and biological evaluation of new [1,2,4]triazolo[4,3-a]pyridine derivatives as potential c-Met inhibitors” (Bioorg Med Chem, 2016)

What was measured:
NCI-H1975 = test: Cytotoxicity against human NCI-H1975 cells assessed as reduction in cell survival incubated for 3 days by cell titre-glo assay; assay type: functional, cell-based; conditions: NCI-H1975, 72 h
[1] = biological target: Receptor tyrosine-protein kinase erbB-4 (Homo sapiens, UniProt Q15303); test: Inhibition of HER4 (unknown origin) incubated for 1 hr by spectrophotometric analysis
Ephrin type-B receptor 2 = Ephrin type-B receptor 2 (Homo sapiens, UniProt P29323); test: Inhibition of EPHB2 (unknown origin) incubated for 1 hr by spectrophotometric analysis
[2] = biological target: Glycogen synthase kinase-3 beta (Homo sapiens, UniProt P49841); test: Inhibition of GSK3beta (unknown origin) incubated for 1 hr by spectrophotometric analysis
[3] = biological target: Platelet-derived growth factor receptor alpha (Homo sapiens, UniProt P16234); test: Inhibition of PDGFRalpha (unknown origin) incubated for 1 hr by spectrophotometric analysis
[4] = biological target: Epidermal growth factor receptor (Homo sapiens, UniProt P00533, L858R); test: Inhibition of EGFR L858R mutant (unknown origin) incubated for 1 hr by spectrophotometric analysis; assay type: protein assay
[5] = biological target: ALK tyrosine kinase receptor (Homo sapiens, UniProt Q9UM73); test: Inhibition of ALK (unknown origin) incubated for 1 hr by spectrophotometric analysis
[6] = biological target: Cyclin-dependent kinase 2 (Homo sapiens, UniProt P24941); test: Inhibition of CDK2 (unknown origin) incubated for 1 hr by spectrophotometric analysis
[7] = biological target: Tyrosine-protein kinase Fyn (Homo sapiens, UniProt P06241); test: Inhibition of FYN (unknown origin) incubated for 1 hr by spectrophotometric analysis
Chain of Tyrosine-protein kinase Fyn (P06241 whole entry): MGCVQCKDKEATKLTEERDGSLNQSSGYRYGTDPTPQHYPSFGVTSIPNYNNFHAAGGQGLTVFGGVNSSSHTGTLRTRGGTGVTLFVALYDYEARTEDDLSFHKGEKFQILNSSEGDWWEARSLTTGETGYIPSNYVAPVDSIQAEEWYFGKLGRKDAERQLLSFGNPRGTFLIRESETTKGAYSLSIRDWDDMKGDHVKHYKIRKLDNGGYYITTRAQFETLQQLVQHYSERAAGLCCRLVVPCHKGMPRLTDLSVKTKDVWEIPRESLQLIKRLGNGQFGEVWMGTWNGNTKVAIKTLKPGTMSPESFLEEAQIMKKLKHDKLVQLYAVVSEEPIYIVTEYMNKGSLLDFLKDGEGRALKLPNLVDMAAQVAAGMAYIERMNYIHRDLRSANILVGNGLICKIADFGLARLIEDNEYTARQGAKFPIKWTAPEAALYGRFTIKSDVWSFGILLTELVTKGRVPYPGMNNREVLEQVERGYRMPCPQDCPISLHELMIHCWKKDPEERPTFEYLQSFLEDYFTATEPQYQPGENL

[8] = biological target: Proto-oncogene tyrosine-protein kinase receptor Ret (Homo sapiens, UniProt P07949); test: Inhibition of RET (unknown origin) incubated for 1 hr by spectrophotometric analysis
Chain of Proto-oncogene tyrosine-protein kinase receptor Ret (P07949 whole entry): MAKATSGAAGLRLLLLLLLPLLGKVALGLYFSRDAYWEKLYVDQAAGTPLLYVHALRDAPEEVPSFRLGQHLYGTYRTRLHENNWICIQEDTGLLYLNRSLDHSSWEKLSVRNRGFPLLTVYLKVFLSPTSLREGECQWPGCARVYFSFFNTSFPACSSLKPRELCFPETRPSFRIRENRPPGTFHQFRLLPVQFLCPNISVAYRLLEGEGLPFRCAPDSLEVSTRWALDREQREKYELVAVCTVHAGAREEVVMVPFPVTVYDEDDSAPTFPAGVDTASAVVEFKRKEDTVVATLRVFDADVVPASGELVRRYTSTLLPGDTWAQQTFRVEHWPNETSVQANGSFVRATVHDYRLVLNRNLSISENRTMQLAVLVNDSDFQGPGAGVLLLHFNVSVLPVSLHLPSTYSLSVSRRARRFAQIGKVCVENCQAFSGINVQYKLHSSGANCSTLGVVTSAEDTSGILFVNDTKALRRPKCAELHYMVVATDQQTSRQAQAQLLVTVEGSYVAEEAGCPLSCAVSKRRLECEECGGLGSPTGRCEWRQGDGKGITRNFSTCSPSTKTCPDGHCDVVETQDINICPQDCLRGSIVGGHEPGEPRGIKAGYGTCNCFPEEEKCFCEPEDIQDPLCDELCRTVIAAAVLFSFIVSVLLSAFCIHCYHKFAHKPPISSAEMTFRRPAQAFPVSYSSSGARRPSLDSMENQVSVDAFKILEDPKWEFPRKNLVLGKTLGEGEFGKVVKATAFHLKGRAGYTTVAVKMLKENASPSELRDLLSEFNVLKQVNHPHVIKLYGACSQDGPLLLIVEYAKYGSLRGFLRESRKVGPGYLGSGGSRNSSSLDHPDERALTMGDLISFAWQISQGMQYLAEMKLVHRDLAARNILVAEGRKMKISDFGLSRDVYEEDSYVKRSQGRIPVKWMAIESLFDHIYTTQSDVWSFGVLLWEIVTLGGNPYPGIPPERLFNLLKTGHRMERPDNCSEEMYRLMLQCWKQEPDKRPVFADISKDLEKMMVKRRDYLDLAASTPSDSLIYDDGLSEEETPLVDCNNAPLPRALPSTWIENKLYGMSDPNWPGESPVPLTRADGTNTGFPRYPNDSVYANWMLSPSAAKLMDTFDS

[9] = biological target: Tyrosine-protein kinase JAK3 (Homo sapiens, UniProt P52333); test: Inhibition of JAK3 (unknown origin) incubated for 1 hr by spectrophotometric analysis
[10] = Cytotoxicity against human HuH7 cells assessed as reduction in cell survival incubated for 3 days by cell titre-glo assay; assay type: functional, cell-based; conditions: Huh-7, 72 h
[11] = biological target: cAMP-dependent protein kinase catalytic subunit alpha (Homo sapiens, UniProt P17612); test: Inhibition of PKACalpha (unknown origin) incubated for 1 hr by spectrophotometric analysis
[12] = Cytotoxicity against human SNU5 cells assessed as reduction in cell survival incubated for 3 days by cell titre-glo assay; conditions: SNU-5, 72 h
Insulin receptor = Insulin receptor (Homo sapiens, UniProt P06213); test: Inhibition of INSR (unknown origin) incubated for 1 hr by spectrophotometric analysis
[13] = biological target: Fibroblast growth factor receptor 1 (Homo sapiens, UniProt P11362); test: Inhibition of FGFR1 (unknown origin) incubated for 1 hr by spectrophotometric analysis
Ephrin type-A receptor 1 = Ephrin type-A receptor 1 (Homo sapiens, UniProt P21709); test: Inhibition of EPHA1 (unknown origin) incubated for 1 hr by spectrophotometric analysis
[14] = biological target: High affinity nerve growth factor receptor (Homo sapiens, UniProt P04629); test: Inhibition of TRKA (unknown origin) incubated for 1 hr by spectrophotometric analysis
[15] = biological target: Protein-tyrosine kinase 6 (Homo sapiens, UniProt Q13882); test: Inhibition of BRK (unknown origin) incubated for 1 hr by spectrophotometric analysis
[16] = biological target: Vascular endothelial growth factor receptor 3 (Homo sapiens, UniProt P35916); test: Inhibition of FLT4 (unknown origin) incubated for 1 hr by spectrophotometric analysis
[17] = Cytotoxicity against human HCCLM3 cells assessed as reduction in cell survival incubated for 3 days by cell titre-glo assay; assay type: functional, cell-based; conditions: HCCLM3, 72 h
[18] = Cytotoxicity against human MHCC97H cells assessed as reduction in cell survival incubated for 3 days by cell titre-glo assay; assay type: functional, cell-based; conditions: 72 h
Aurora kinase A = Aurora kinase A (Homo sapiens, UniProt O14965); test: Inhibition of Aurora A (unknown origin) incubated for 1 hr by spectrophotometric analysis
[19] = biological target: Serine/threonine-protein kinase N2 (Homo sapiens, UniProt Q16513); test: Inhibition of PKN2 (unknown origin) incubated for 1 hr by spectrophotometric analysis
[20] = biological target: Insulin-like growth factor 1 receptor (Homo sapiens, UniProt P08069); test: Inhibition of IGF-1R (unknown origin) incubated for 1 hr by spectrophotometric analysis
Ephrin type-B receptor 1 = Ephrin type-B receptor 1 (Homo sapiens, UniProt P54762); test: Inhibition of EPHB1 (unknown origin) incubated for 1 hr by spectrophotometric analysis
Chain of Ephrin type-B receptor 1 (P54762 whole entry): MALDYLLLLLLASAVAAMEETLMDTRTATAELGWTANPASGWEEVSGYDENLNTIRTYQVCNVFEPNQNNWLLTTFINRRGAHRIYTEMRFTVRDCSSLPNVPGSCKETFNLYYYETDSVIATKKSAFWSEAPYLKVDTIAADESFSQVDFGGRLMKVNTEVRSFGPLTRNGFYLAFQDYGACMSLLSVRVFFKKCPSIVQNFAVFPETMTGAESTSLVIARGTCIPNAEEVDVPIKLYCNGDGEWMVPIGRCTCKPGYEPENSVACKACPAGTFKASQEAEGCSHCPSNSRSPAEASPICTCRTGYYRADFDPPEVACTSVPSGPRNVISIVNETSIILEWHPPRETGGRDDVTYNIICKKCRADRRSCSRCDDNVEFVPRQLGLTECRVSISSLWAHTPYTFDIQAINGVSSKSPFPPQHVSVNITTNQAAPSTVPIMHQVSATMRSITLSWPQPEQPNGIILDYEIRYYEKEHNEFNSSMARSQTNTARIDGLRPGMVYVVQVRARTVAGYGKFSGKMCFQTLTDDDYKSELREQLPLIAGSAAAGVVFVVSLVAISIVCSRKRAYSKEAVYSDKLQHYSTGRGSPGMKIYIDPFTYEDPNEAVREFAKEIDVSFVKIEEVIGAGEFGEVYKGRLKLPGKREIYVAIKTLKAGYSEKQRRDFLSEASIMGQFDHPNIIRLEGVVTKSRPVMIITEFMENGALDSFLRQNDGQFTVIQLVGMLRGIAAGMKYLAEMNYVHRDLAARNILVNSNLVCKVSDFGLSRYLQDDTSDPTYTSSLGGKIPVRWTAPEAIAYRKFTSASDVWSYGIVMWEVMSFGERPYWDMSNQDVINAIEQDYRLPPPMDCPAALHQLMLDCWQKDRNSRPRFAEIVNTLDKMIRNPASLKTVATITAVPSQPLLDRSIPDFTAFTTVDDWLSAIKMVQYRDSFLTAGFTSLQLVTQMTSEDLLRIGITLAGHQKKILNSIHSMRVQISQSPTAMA

[21] = biological target: Protein kinase C zeta type (Homo sapiens, UniProt Q05513); test: Inhibition of PKCzeta (unknown origin) incubated for 1 hr by spectrophotometric analysis
Chain of Protein kinase C zeta type (Q05513 whole entry): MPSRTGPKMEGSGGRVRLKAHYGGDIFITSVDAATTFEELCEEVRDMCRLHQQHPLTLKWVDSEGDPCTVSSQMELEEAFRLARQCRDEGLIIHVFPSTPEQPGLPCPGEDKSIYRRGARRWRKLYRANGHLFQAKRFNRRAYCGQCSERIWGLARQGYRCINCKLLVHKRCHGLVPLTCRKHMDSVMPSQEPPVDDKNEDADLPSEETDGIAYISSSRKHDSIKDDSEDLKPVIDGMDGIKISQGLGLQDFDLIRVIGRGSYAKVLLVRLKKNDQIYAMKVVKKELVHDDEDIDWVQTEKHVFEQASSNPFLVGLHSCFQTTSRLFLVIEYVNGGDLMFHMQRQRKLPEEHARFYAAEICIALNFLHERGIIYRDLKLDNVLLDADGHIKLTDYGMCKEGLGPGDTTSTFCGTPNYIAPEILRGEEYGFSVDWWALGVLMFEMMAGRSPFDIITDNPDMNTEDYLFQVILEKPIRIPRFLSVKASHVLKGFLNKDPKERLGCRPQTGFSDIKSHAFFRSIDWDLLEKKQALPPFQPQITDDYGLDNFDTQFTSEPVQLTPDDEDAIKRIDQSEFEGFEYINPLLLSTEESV

[22] = biological target: Platelet-derived growth factor receptor beta (Homo sapiens, UniProt P09619); test: Inhibition of PDGFRbeta (unknown origin) incubated for 1 hr by spectrophotometric analysis
[23] = biological target: Tyrosine-protein kinase SYK (Homo sapiens, UniProt P43405); test: Inhibition of SYK (unknown origin) incubated for 1 hr by spectrophotometric analysis
[24] = biological target: Fibroblast growth factor receptor 2 (Homo sapiens, UniProt P21802); test: Inhibition of FGFR2 (unknown origin) incubated for 1 hr by spectrophotometric analysis
Chain of Fibroblast growth factor receptor 2 (P21802 whole entry): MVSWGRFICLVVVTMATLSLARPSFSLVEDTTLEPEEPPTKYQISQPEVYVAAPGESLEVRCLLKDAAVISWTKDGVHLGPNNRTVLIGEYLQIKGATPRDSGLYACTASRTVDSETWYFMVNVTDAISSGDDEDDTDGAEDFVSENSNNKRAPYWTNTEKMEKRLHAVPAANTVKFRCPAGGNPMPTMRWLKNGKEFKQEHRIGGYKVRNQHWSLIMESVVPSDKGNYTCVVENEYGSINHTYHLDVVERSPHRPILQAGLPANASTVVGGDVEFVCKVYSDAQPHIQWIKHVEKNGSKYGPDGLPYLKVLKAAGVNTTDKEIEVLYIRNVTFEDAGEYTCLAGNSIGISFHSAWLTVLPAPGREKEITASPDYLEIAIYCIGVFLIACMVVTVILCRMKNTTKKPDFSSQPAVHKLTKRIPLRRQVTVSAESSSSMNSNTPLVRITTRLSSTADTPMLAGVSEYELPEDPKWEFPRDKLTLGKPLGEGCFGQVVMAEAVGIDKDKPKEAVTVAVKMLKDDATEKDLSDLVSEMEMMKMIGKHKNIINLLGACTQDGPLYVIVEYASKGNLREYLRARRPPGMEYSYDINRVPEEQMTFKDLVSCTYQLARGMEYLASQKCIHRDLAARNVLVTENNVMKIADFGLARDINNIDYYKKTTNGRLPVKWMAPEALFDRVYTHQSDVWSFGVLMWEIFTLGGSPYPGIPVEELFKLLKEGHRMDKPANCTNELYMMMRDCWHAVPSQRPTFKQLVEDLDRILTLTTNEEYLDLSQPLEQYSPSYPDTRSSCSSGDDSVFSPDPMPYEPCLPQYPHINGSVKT

[25] = biological target: Tyrosine-protein kinase ABL1 (Homo sapiens, UniProt P00519); test: Inhibition of ABL (unknown origin) incubated for 1 hr by spectrophotometric analysis
[26] = biological target: Mast/stem cell growth factor receptor Kit (Homo sapiens, UniProt P10721); test: Inhibition of c-Kit (unknown origin) incubated for 1 hr by spectrophotometric analysis
Chain of Mast/stem cell growth factor receptor Kit (P10721 whole entry): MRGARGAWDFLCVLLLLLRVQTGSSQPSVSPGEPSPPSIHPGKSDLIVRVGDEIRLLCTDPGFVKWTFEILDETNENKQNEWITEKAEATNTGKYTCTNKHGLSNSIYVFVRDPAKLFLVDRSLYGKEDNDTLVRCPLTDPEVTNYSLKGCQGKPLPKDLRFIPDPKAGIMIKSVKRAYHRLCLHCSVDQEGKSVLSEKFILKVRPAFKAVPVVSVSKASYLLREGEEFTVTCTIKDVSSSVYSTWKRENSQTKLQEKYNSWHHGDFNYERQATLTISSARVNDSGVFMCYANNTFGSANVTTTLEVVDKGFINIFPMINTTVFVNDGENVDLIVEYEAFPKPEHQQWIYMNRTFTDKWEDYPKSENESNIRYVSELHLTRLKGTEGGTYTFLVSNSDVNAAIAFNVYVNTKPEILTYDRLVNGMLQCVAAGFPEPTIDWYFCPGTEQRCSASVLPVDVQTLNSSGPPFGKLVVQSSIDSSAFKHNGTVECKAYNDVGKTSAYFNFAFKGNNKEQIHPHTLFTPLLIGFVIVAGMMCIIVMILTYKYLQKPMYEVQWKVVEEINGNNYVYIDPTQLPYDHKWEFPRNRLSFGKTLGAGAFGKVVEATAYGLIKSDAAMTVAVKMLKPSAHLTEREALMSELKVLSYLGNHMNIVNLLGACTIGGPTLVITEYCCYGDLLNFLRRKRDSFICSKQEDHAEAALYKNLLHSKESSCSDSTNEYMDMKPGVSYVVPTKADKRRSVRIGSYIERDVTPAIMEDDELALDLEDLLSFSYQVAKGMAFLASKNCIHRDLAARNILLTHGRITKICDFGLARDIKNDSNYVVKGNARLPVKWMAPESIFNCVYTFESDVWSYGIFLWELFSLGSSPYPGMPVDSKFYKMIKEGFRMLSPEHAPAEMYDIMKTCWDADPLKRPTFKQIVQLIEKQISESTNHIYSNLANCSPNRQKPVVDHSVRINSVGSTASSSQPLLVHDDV

[27] = Cytotoxicity against human MHCC97L cells assessed as reduction in cell survival incubated for 3 days by cell titre-glo assay; assay type: functional, cell-based; conditions: 72 h
[28] = biological target: Hepatocyte growth factor receptor (Homo sapiens, UniProt P08581); test: Inhibition of c-Met (unknown origin) incubated for 1 hr by spectrophotometric analysis
Angiopoietin-1 receptor = Angiopoietin-1 receptor (Homo sapiens, UniProt Q02763); test: Inhibition of TIE2 (unknown origin) incubated for 1 hr by spectrophotometric analysis
[29] = biological target: Tyrosine-protein kinase Fer (Homo sapiens, UniProt P16591); test: Inhibition of FER (unknown origin) incubated for 1 hr by spectrophotometric analysis
[30] = biological target: Epidermal growth factor receptor (Homo sapiens, UniProt P00533, L858R/T790M); test: Inhibition of EGFR T790M/L858R mutant (unknown origin) incubated for 1 hr by spectrophotometric analysis; assay type: protein assay
[31] = biological target: Leukocyte tyrosine kinase receptor (Homo sapiens, UniProt P29376); test: Inhibition of LTK (unknown origin) incubated for 1 hr by spectrophotometric analysis
[32] = biological target: Fibroblast growth factor receptor 4 (Homo sapiens, UniProt P22455); test: Inhibition of FGFR4 (unknown origin) incubated for 1 hr by spectrophotometric analysis
[33] = biological target: Proto-oncogene tyrosine-protein kinase Src (Homo sapiens, UniProt P12931); test: Inhibition of SRC (unknown origin) incubated for 1 hr by spectrophotometric analysis
[34] = biological target: Fibroblast growth factor receptor 3 (Homo sapiens, UniProt P22607); test: Inhibition of FGFR3 (unknown origin) incubated for 1 hr by spectrophotometric analysis

CN1C(=O)COc2c1cnc1ccc(Sc3nnc4c(F)cc(-c5cnn(C)c5)cn34)cc21 [DALMELITINIB]
IC50 (NCI-H1975): > 10 µM
IC50 [1]: > 30 µM
IC50 (Ephrin type-B receptor 2): > 30 µM
IC50 [2]: 16.2 µM
IC50 [3]: > 30 µM
IC50 [4]: > 30 µM
IC50 [5]: > 30 µM
IC50 [6]: > 30 µM
IC50 [7]: 11.2 µM
IC50 [8]: > 30 µM
IC50 [9]: > 30 µM
IC50 [10]: > 10 µM
IC50 [11]: > 30 µM
IC50 [12]: 0.002 µM
IC50 (Insulin receptor): > 30 µM
IC50 [13]: > 30 µM
IC50 (Ephrin type-A receptor 1): > 30 µM
IC50 [14]: > 30 µM
IC50 [15]: > 30 µM
IC50 [16]: > 30 µM
IC50 [17]: 0.033 µM
IC50 [18]: 0.006 µM
IC50 (Aurora kinase A): > 30 µM
IC50 [19]: > 30 µM
IC50 [20]: > 30 µM
IC50 (Ephrin type-B receptor 1): > 30 µM
IC50 [21]: > 30 µM
IC50 [22]: > 30 µM
IC50 [23]: > 30 µM
IC50 [24]: > 30 µM
IC50 [25]: > 30 µM
IC50 [26]: > 30 µM
IC50 [27]: 0.007 µM
IC50 [28]: 0.0007 µM
IC50 (Angiopoietin-1 receptor): > 30 µM
IC50 [29]: > 30 µM
IC50 [30]: > 30 µM
IC50 [31]: > 30 µM
IC50 [32]: > 30 µM
IC50 [33]: 15.5 µM
IC50 [34]: > 30 µM
